The structures appear in SMILES notation.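 Cells were grown in 96-well plates and exposed to each compound for 48 hours at five concentrations; endpoints were interpolated linearly between bracketing concentrations, or set to the highest concentration if not reached. Abbreviation: GI50, concentration required for 50% inhibition of growth. TGI: concentration producing complete growth inhibition.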 Bounds are passed on as bounds.

From PubChem BioAssay (NCI) come the findings set out here.

What all share (assay): inhibition of tumour cell growth, NCI panel, 48 h
The subject of assay [1] is UO-31 renal.
The subject of assay [2] is RPMI-8226 leukemia.
Assay [3] relates to CAKI-1 renal.
Assay [4] relates to TK-10 renal.
Assay [5] has as its system SNB-19 CNS.
The test system of assay [6] is OVCAR-3 ovarian.
Assay [7] has as its system NCI-H23 lung.
Assay [8] concerns MDA-MB-435.
Assay [9] concerns K-562 leukemia.
The test system of assay [10] is EKVX NSCLC.

`COc1ccc2c(c1)[n+](=O)c(/C=C/C(=O)c1cc(OC)c(OC)c(OC)c1)c(C)n2[O-]`: the GI50 in assay [1] was 3.57 µM; in assay [2] it was 3.05 µM; in assay [3], 5.31 µM; in assay [4], 8.74 µM; in [5], 29.7 µM; in assay [6], 2.04 µM. The GI50 in assay [7] was 13.7 µM; in assay [8], 6.65 µM; in assay [9] it was 2.59 µM; in assay [10], 5.82 µM. Besides, the TGI in assay [1] was greater than 100 µM; in assay [2] it was 15.6 µM; in assay [3] it was greater than 100 µM; in assay [4], greater than 100 µM; in assay [5] it was greater than 100 µM; in assay [6], 11.7 µM. Also, the TGI was 34 µM in [7], greater than 100 µM in [8], greater than 100 µM in assay [9] and greater than 100 µM in assay [10].
As for `COc1ccc(C(=O)c2ccccc2)c(O)c1`, the GI50 in assay [1] was 17 µM; in assay [2] it was 82.2 µM; in assay [3] it was 67.4 µM; in assay [4], greater than 100 µM; in assay [5] it was greater than 100 µM; in assay [6] it was greater than 100 µM. Further, the GI50 in [7] is greater than 100 µM; in [8], 66.6 µM; in [9], 91 µM; in [10] it was 40.9 µM. Besides, the TGI in assay [1], in assay [2], in [3], in [4], in [5] and in [6] was greater than 100 µM in each case. In addition, the TGI in assay [7], in assay [8], in assay [9] and in assay [10] was greater than 100 µM each time.
Take `COc1ccc(N=c2nc3sc4cc(Cl)ccc4n3c(N)c2C#N)cc1`: the GI50 was 18.3 µM in assay [1]; 25 µM in assay [2]; 8.05 µM in assay [3]; 4.61 µM in [4]; 20.7 µM in [5]; 9.66 µM in assay [6]. Moreover, the GI50 in assay [7] is 2.49 µM; in assay [8], 3.98 µM; in [9], 22.5 µM; in [10], 2.45 µM. The TGI was greater than 100 µM in assay [1]; greater than 72.6 µM in assay [2]; 78.3 µM in assay [3]; 45.5 µM in [4]; greater than 100 µM in [5]; 44.8 µM in assay [6]. The TGI in [7] is 20.5 µM; in assay [8], greater than 100 µM; in [9] it was greater than 100 µM; in assay [10], greater than 100 µM.
Turning to `CN(C)CCN=c1nc2c(c(N)n1-c1ccccc1)c(=S)n(-c1ccccc1)c(=S)n2-c1ccccc1`, the GI50 was 1.48 µM in assay [1]; 0.587 µM in assay [2]; 2.16 µM in assay [3]; 2.36 µM in assay [4]; 3.86 µM in assay [5]; 2.89 µM in assay [6]. Besides, the GI50 in assay [7] is 13.2 µM; in assay [8], 1.75 µM; in assay [9], 3.6 µM; in assay [10] it was 11 µM. In addition, the TGI came to 3.83 µM in assay [1]; 14.1 µM in assay [3]; 10.1 µM in assay [4]; 16.7 µM in assay [5]; 11.6 µM in assay [6]; 31.9 µM in assay [7]. Further, the TGI in assay [8] was 3.9 µM; in assay [10], 27.2 µM.
Turning to `CCOC1=C/C(=N\Nc2ccc([N+](=O)[O-])cc2)CCC1`, the TGI is 35.1 µM in assay [1]; greater than 100 µM in assay [2]; greater than 100 µM in assay [3]; greater than 100 µM in [4]; greater than 100 µM in assay [5]; greater than 100 µM in assay [6]. Besides, the TGI in assay [7] was 94.1 µM; in assay [8], greater than 100 µM; in [9] it was greater than 100 µM; in [10], greater than 100 µM.
Regarding `N#C/C(=C/C=C/c1cccc(Cl)c1)S(=O)c1ccccc1` (stereo not given), the GI50 in assay [1] was 0.358 µM; in assay [2], 0.339 µM; in assay [3] it was 0.283 µM; in assay [4] it was 0.359 µM; in assay [5] it was 0.684 µM; in [6], 0.253 µM. Moreover, the GI50 in assay [7] is 0.42 µM; in assay [8] it was 0.448 µM; in [9], 0.301 µM; in [10], 0.803 µM. Also, the TGI is 1.71 µM in assay [1]; 1 µM in assay [2]; 1.08 µM in assay [3]; 1.32 µM in [4]; 2.52 µM in [5]; 0.782 µM in assay [6]. Further, the TGI in assay [7] is 1.74 µM; in assay [8], 1.69 µM; in assay [9], 13.2 µM; in assay [10] it was 2.23 µM.
In the case of `Cc1cc(C)nc(NC(=O)COc2ccc(Cl)cc2)c1`, the TGI in [2], in assay [3], in [4], in assay [5], in assay [6] and in [7] was greater than 100 µM each time. Further, the TGI in [8], in assay [9] and in [10] was greater than 100 µM each time.
With `OC[C@H]1N[C@H](CO)[C@@H](O)[C@H]1O`, the TGI in assay [1], in assay [2], in [3], in assay [4], in assay [5] and in [7] was greater than 100 µM throughout. For the same compound, the TGI in [8], in assay [9] and in assay [10] was greater than 100 µM each time.
On to `O=C(O)CCN1C(=S)CSC1=S`, for which the TGI in [2], in assay [3], in assay [4], in assay [5], in assay [6] and in [7] was greater than 100 µM throughout. Besides, the TGI in [8], in assay [9] and in assay [10] was greater than 100 µM throughout.
